Laboratory results reported in ChEMBL document CHEMBL3217673, “Synthesis of cyanine dyes and investigation of their in vitro antiprotozoal activities” (Medchemcomm, 2012).

Columns and labels:
[1] = Selectivity index, ratio of IC50 for rat L6 cells to IC50 for Trypanosoma cruzi Tulahuen C2C4; assay type: toxicity, cell-based; conditions: read-out: Ratio IC50
[2] = Selectivity index, ratio of IC50 for rat L6 cells to IC50 for chloroquine and pyrimethamine-resistant Plasmodium falciparum K1; assay type: toxicity, cell-based; conditions: read-out: Ratio IC50
L6 = experiment: Cytotoxicity against rat L6 cells; assay type: cell-based
[3] = Selectivity index, ratio of IC50 for rat L6 cells to IC50 for Leishmania donovani MHOMET-67/L82; assay type: toxicity, cell-based; conditions: read-out: Ratio IC50
[4] = system: Trypanosoma brucei rhodesiense; experiment: Antiprotozoal activity against Trypanosoma brucei rhodesiense STIB900; assay type: functional, organism-based
Plasmodium falciparum = experiment: Antiprotozoal activity against chloroquine and pyrimethamine-resistant Plasmodium falciparum K1; assay type: functional, organism-based
[5] = Selectivity index, ratio of IC50 for rat L6 cells to IC50 for Trypanosoma brucei rhodesiense STIB900; assay type: toxicity, cell-based; conditions: read-out: Ratio IC50
Leishmania donovani = experiment: Antiprotozoal activity against Leishmania donovani MHOMET-67/L82; assay type: functional, organism-based
Trypanosoma cruzi = experiment: Antiprotozoal activity against Trypanosoma cruzi Tulahuen C2C4; assay type: functional, organism-based

SMILES | selectivity ratio [1] | selectivity ratio [2] | IC50 (L6) [µM] | selectivity ratio [3] | IC50 [4] [µM] | IC50 (Plasmodium falciparum) [µM] | selectivity ratio [5] | IC50 (Leishmania donovani) [µM] | IC50 (Trypanosoma cruzi) [µM]
CN1/C(=C/C=C/c2oc3ccccc3[n+]2C)Sc2ccc(Cl)cc21 | 6.4 | 178 | 2.28 | 19 | 0.266 | 0.013 | 8.6 | 0.12 | 0.355
CN1/C(=C/C=C/c2oc3ccc(Cl)cc3[n+]2C)Sc2ccc(Cl)cc21 | 1 | 141 | 2.98 | 35.3 | 0.129 | 0.021 | 23.1 | 0.085 | 2.87
CCN1/C(=C/C=C/c2oc3ccc(C)cc3[n+]2C)Sc2ccc(F)cc21 | 24 | 66 | 0.655 | 44 | 0.285 | 0.01 | 2.3 | 0.015 | 0.027
Cc1ccc2oc(/C=C/C=C3\Sc4ccc(F)cc4N3C)[n+](C)c2c1 | 194 | 145 | 1.49 | 72.6 | 0.18 | 0.01 | 8.3 | 0.021 | 0.008
CCN1/C(=C/C=C/c2oc3ccc(Cl)cc3[n+]2C)Sc2ccc(F)cc21 | 3.6 | 218 | 3.1 | 29.1 | 0.85 | 0.014 | 3.6 | 0.106 | 0.853
CN1/C(=C/C=C/c2oc3ccccc3[n+]2C)Sc2ccc(F)cc21 | 5.7 | 201 | 1.07 | 16.1 | 0.867 | 0.005 | 1.2 | 0.067 | 0.186
CCN1/C(=C/C=C/c2oc3ccccc3[n+]2C)Sc2ccc(F)cc21 | 5.7 | 586 | 1.51 | 27.9 | 0.841 | 0.003 | 1.8 | 0.054 | 0.262
CN1/C(=C/C=C/c2sc3ccccc3[n+]2C)Sc2ccccc21 | 63 | 126 | 0.338 | 63 | 0.115 | 0.003 | 2.9 | 0.005 | 0.005
CN1/C(=C/C=C/c2sc3ccccc3[n+]2C)Sc2ccc(Cl)cc21 | 45 | 45 | 0.331 | 5.2 | 0.064 | 0.007 | 5.2 | 0.064 | 0.007
CN1/C(=C/C=C/c2sc3ccc(Cl)cc3[n+]2C)Sc2ccc(Cl)cc21 | 0.2 | 477 | 1.08 | 119 | 0.018 | 0.002 | 59.6 | 0.009 | 7.08
CN1/C(=C/C=C/c2sc3ccc(F)cc3[n+]2C)Sc2ccc(F)cc21 | 0.2 | 477 | 0.699 | 35.8 | 0.262 | 0.002 | 2.7 | 0.02 | 2.91
CCN1/C(=C/C=C/c2sc3ccc(F)cc3[n+]2CC)Sc2ccc(F)cc21 | 0.7 | 371 | 0.849 | 30.9 | 0.769 | 0.002 | 1.1 | 0.028 | 1.17
Cn1/c(=N/C=C/c2sc3ccccc3[n+]2C)sc2ccccc21 | 170 | 340 | 2.73 | 255 | 0.021 | 0.008 | 128 | 0.011 | 0.016
Cn1/c(=N/C=C/c2sc3ccc(Cl)cc3[n+]2C)sc2ccccc21 | 1.3 | 132 | 0.649 | 88.3 | 0.01 | 0.005 | 66.3 | 0.007 | 0.509
Cn1/c(=N/C=C/c2sc3ccc(F)cc3[n+]2C)sc2ccccc21 | 9 | 153 | 5.84 | 191 | 0.37 | 0.038 | 15.8 | 0.031 | 0.648
Cn1/c(=N\N/C=C/c2sc3ccccc3[n+]2C)sc2ccccc21 | 1.7 | 3 | 21.1 | 1.6 | 3.83 | 7.02 | 5.5 | 13.1 | 12.4
Cn1/c(=N\N/C=C/c2sc3ccc(Cl)cc3[n+]2C)sc2ccccc21 | 1 | 4.2 | 10.8 | 1.3 | 2.97 | 2.6 | 3.6 | 8.34 | 11.4
Cn1/c(=N\N/C=C/c2sc3ccc(F)cc3[n+]2C)sc2ccccc21 | 1.3 | 2.5 | 15.5 | 1.5 | 4.45 | 6.14 | 3.5 | 10.2 | 11.8
CN1/C(=C/C=C/C=C/c2sc3ccccc3[n+]2C)Sc2ccccc21 | 29.9 | 13.5 | 1.79 | 12.7 | 0.013 | 0.133 | 137 | 0.14 | 0.06
CN1/C(=C/C=C/C=C/c2sc3ccc(Cl)cc3[n+]2C)Sc2ccc(Cl)cc21 | 0.3 | 13.9 | 0.876 | 11.8 | 0.008 | 0.063 | 106 | 0.075 | 2.63
CN1/C(=C/C=C/C=C/c2sc3ccc(F)cc3[n+]2C)Sc2ccc(F)cc21 | 1.1 | 9.2 | 2.08 | 11.1 | 0.002 | 0.228 | 1190 | 0.188 | 1.96
